Data from patent US11484561B2, “Morus extracts rich in N-acids of imino sugars and or pipecolic acids” (Phynova Limited, priority 2011, dated 2022).

How the values were obtained:
α-L-fucosidase (bovine) [1] = biological target: T1, α-L-fucosidase (bovine) (Bos taurus, UniProt Q2KIM0); assay: Glycosidase assay, α-L-fucosidase (bovine); type: biochemical; details: Table 16; % inhibition; concentration not given
T1 construct: purchased Sigma-Aldrich
T1 sequence (Q2KIM0 23-468): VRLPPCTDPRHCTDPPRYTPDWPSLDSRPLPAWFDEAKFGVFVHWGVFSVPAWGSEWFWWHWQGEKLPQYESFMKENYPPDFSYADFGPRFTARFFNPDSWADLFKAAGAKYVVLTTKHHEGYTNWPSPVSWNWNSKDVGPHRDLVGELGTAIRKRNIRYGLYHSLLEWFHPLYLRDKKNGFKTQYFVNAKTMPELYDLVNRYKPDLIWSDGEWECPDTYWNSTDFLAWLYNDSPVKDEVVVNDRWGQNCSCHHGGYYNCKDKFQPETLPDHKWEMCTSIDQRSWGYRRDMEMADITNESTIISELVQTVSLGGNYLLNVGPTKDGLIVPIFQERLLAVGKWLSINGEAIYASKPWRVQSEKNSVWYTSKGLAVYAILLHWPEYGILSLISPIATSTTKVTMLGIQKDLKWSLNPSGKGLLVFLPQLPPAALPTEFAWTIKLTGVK
Procedure: (§1) The assays used p-nitrophenyl-substrates and commercial enzymes purchased from Sigma-Aldrich. Enzymes were assayed at 27° C. in 0.1M citric acid/0.2M disodium hydrogen phosphate buffers at the optimum pH for the enzyme. The incubation mixture consisted of 10 μl enzyme solution, 10 μl of 10 mg/ml aqueous solution of extract and 50 μl of the appropriate 5 mM p-nitrophenyl substrate made up in buffer at the optimum pH for the enzyme. The reactions were stopped by addition of 70 μl 0.4M glycine (pH 10.4) during the exponential phase of the reaction, which had been determined at the beginning using uninhibited assays in which water replaced mulberry fractions. Final absorbances were read at 405 nm using a Versamax microplate reader (Molecular Devices). Assays were carried out in triplicate, and the values given are means of the three replicates per assay. Results are expressed as % inhibition.

[2] = tested on: naringinase (P. decumbens); assay: Glycosidase assay, naringinase (P. decumbens); type: biochemical; details: Table 16; % inhibition; concentration not given
Procedure: as §1
(§2) Substrates are 10 mM p-nitrophenyl-glycopyranosides. Enzymes are purchased from Sigma and run at the pH optima

[3] = tested on: β-D-mannosidase Cellulomonas fimi; assay: Glycosidase assay, β-D-mannosidase (Cellulomonas fimi); type: biochemical; details: Table 16; % inhibition; concentration not given
Procedure: as §1

[4] = biological target: T2, α-D-galactosidase (green coffee bean) (Coffea arabica, UniProt Q42656); assay: Glycosidase assay, α-D-galactosidase (green coffee bean); type: biochemical; details: Table 16; % inhibition; concentration not given
T2 construct: purchased Sigma-Aldrich
Procedure: as §1, §2

[5] = tested on: N-acetyl-β-D-gluc (Bovine kidney); assay: Glycosidase assay, N-acetyl-β-D-gluc (Bovine kidney); type: biochemical; details: Table 16; % inhibition; concentration not given
Procedure: as §1, §2

α-D-glucosidase (Yeast) [6] = biological target: T3, α-D-glucosidase (Yeast) (Saccharomyces cerevisiae, UniProt P53341); assay: Glycosidase assay, α-D-glucosidase (Yeast); type: biochemical; details: Table 16; % inhibition; concentration not given
T3 construct: purchased Sigma-Aldrich
Procedure: as §1, §2

[7] = biological target: T4, human recombinant α-L-iduronidase (Homo sapiens, UniProt P35475); assay: α-L-iduronidase inhibition; type: biochemical
T4 sequence (P35475 28-653): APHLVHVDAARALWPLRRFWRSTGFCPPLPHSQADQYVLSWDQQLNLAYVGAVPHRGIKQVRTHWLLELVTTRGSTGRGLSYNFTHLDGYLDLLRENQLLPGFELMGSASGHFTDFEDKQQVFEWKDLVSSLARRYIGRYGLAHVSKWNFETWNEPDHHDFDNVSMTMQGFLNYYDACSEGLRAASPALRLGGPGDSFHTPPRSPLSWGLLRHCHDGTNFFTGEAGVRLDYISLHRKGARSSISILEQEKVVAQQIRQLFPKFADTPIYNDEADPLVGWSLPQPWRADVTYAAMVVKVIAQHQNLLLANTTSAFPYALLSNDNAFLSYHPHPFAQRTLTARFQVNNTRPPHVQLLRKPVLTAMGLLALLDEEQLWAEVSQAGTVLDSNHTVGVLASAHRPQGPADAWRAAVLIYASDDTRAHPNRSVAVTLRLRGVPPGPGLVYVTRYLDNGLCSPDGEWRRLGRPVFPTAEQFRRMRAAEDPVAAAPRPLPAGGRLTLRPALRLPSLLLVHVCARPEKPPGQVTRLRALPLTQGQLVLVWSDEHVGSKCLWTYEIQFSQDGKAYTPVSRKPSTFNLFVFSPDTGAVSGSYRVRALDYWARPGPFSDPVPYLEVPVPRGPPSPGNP

[8] = biological target: T5, β-glucuronidase (bovine liver) (Bos taurus, UniProt A3KMY8); set-up: key: NI = no inhibition; details: typical DNJ inhibitory activity shown for reference, in words; cited from earlier work
T5 construct: purchased Sigma-Aldrich; host or cells: bovine liver
T5 sequence (A3KMY8 1-652): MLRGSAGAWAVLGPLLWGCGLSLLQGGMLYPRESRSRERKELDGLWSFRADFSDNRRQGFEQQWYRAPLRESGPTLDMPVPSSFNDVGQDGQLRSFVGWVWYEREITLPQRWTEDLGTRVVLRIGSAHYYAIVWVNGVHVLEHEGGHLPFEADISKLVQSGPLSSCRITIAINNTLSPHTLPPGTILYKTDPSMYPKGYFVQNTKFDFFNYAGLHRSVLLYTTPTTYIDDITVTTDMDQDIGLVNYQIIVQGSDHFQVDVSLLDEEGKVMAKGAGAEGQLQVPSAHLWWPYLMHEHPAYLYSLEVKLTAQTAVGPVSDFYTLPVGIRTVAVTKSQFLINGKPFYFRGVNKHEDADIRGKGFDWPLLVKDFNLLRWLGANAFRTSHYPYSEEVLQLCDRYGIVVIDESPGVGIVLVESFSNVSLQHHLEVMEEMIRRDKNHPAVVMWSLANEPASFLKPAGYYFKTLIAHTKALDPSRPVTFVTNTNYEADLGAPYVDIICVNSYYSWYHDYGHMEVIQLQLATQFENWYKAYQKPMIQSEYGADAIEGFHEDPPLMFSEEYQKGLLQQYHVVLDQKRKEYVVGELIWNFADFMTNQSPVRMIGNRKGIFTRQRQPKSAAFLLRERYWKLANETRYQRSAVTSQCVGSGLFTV

[9] = biological target: T6, amyloglucosidase (A. niger) (Aspergillus niger, UniProt P69328); set-up: key: NI = no inhibition; details: typical DNJ inhibitory activity shown for reference, in words; cited from earlier work
T6 construct: purchased Sigma-Aldrich

α-L-fucosidase (bovine) [10] = biological target: T1, α-L-fucosidase (bovine); set-up: key: NI = no inhibition; details: typical DNJ inhibitory activity shown for reference, in words; cited from earlier work
β-D-glucosidase (almond) = details: typical DNJ inhibitory activity shown for reference, in words; cited from earlier work
α-D-glucosidase (Yeast) [11] = biological target: T3, α-D-glucosidase (Yeast); details: typical DNJ inhibitory activity shown for reference, in words; cited from earlier work
[12] = biological target: T2, α-D-galactosidase (green coffee bean); details: typical DNJ inhibitory activity shown for reference, in words; cited from earlier work

T2 sequence (Q42656 16-378): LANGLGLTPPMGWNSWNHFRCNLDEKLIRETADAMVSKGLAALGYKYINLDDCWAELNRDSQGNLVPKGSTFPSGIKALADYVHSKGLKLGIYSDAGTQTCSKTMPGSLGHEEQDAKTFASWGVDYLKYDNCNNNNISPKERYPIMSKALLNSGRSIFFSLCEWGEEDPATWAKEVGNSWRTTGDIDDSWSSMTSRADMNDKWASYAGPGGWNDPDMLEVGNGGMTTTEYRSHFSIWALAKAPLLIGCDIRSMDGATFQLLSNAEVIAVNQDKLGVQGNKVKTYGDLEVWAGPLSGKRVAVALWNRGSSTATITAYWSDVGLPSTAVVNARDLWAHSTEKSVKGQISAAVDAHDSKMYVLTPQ
T3 sequence (P53341 whole entry): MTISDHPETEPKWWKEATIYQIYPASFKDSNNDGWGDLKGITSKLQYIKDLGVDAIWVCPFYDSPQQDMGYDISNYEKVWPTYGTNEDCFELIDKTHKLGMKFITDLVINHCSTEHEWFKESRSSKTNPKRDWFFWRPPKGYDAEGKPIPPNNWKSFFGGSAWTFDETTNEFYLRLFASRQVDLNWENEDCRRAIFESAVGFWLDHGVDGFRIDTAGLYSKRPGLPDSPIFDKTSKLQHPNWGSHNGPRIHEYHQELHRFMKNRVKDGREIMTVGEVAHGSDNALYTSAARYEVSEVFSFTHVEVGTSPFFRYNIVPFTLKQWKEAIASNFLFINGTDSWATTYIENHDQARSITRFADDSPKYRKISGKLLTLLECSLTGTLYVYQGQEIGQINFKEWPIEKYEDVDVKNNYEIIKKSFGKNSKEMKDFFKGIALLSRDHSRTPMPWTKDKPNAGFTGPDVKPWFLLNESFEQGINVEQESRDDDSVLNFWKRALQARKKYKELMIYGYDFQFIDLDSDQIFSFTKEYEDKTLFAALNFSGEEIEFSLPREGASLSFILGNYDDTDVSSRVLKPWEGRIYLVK
T6 sequence (P69328 25-640): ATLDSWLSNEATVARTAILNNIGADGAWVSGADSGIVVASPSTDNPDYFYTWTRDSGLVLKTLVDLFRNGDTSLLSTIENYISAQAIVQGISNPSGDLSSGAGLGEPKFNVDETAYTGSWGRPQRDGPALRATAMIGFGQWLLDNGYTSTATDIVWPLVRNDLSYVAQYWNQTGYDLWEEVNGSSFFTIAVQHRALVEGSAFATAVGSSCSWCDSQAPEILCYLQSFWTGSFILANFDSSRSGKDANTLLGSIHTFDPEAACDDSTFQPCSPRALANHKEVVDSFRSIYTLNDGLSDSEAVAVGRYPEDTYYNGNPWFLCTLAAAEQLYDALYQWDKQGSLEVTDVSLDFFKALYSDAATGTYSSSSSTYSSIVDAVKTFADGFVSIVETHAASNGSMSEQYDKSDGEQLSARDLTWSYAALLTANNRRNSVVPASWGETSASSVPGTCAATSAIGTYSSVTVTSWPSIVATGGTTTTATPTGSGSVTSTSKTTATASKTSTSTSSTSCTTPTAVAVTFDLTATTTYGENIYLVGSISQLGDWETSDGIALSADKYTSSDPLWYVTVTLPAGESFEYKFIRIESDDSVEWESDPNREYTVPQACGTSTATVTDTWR

Compound	α-L-fucosidase (Bovine) (α-L-fucosidase (bovine) [1])	Naringinase (P. decumbens) [2]	β-D-mannosidase (C. fimi) [3]	α-D-galactosidase (Green coffee beans) [4]	N-acetyl-β-D-gluc (Bovine kidney) [5]	α-D-glucosidase (Yeast) (α-D-glucosidase (Yeast) [6])	inhibition of the iduronidase, in words ([7]; at 0.8 mM)	IC50 [7]	β-glucuronidase (bovine liver), typical DNJ inhibitory activity [8]	amyloglucosidase (A. niger), typical DNJ inhibitory activity [9]	α-L-fuc bovine, typical DNJ inhibitory activity (α-L-fucosidase (bovine) [10])	β-D-glu almond, typical DNJ inhibitory activity (β-D-glucosidase (almond))	α-D-glu Yeast, typical DNJ inhibitory activity (α-D-glucosidase (Yeast) [11])	α-D-gal green coffee bean, typical DNJ inhibitory activity [12]
O=C(O)CN1C[C@H](O)[C@@H](O)[C@H](O)[C@H]1CO [DNJ-N-ethanoic, DNJ-ethanoic acid]	5%	0%	−10%	−8%	84%	2.5%	only weakly inhibits	–	–	–	–	–	–	–
O=C(O)CN1C[C@@H](O)[C@H](O)[C@H]1CO [DAB-N-ethanoic, DAB-N-ethanoic acid]	3%	0%	−5%	−5%	82%	10.7%	–	196 µM	–	–	–	–	–	–
OC[C@H]1NC[C@H](O)[C@@H](O)[C@@H]1O [DNJ, 1 deoxynojirmycin]	6%	21%	−19%	−3%	0%	36%	–	–	NI	NI	NI	moderate	weak	weak
O=C(O)CCN1C[C@H](O)[C@@H](O)[C@H](O)[C@H]1CO [DNJ-N-propanoic, DNJ-N-propanoic acid]	11%	4%	−5%	15%	86%	0.0%	–	383 µM	–	–	–	–	–	–
